Measurements from patent US20260125727A1, “METHOD FOR PRODUCING A COMPOSITION, A COMPOSITION COMPRISING AN OLIGOSACCHARIDE OBTAINED THEREBY, AND USES THEREOF” (MEIJI CO., LTD., priority 2022, published 2026).

Experiments:
[1] = Evaluation of thermal stability of aqueous solution (residual ratio of galactosylkojibiose after heat treatment, HPLC); format: physicochemical; conditions: for change of galactosylkojibiose HPLC peak after heat treatment: 120° C. for 20 minutes, 12 wt % solution in buffer
Experimental: Buffers having various pH values (100 mM citrate-phosphate buffer for pH 3 to 6 and 100 mM phosphate buffer for pH 6 to 8) were used to dissolve the purified and fractionated galactosylkojibiose obtained in Example 3 so that the resulting solutions should have 12° Bx (12 wt %). The solutions were subjected to a heat treatment at 60° C., 80° C., 100° C., and 120° C. for 20 minutes by using an autoclave, and then residual ratio of galactosylkojibiose was evaluated.
The residual ratio was calculated from the results obtained by using HPLC method performed under the following conditions. • Column: SUPELCO apHera™ NH2 HPLC Column • Mobile phase: 68% acetonitrile • Column temperature: 35° C. • Flow rate: 1.0 mL/min • Detection: RI

Parabacteroides bacteria = experiment: Promotion of growth of Parabacteroides bacteria in the intestinal microbiota; conditions: studies of the inventors, no method given
Bifidobacterium bacteria = experiment: Promotion of growth of Bifidobacterium bacteria in the intestinal microbiota; conditions: studies of the inventors, no method given

SMILES	decay of galactosylkojibiose after heat treatment ([1]; 60° C. for 20 minutes, any pH value (pH 3 to 8))	change of galactosylkojibiose HPLC peak after heat treatment ([1]; pH 6 or lower)	change of galactosylkojibiose HPLC peak after heat treatment ([1]; pH 7 or higher, new peak at around 12.1 minutes)	growth of Parabacteroides bacteria in the intestinal microbiota (Parabacteroides bacteria)	growth of Bifidobacterium bacteria in the intestinal microbiota (Bifidobacterium bacteria)
OCC1O[C@H](OC2C(O)[C@H](O[C@@H]3OC(CO)[C@H](O)C(O)C3O)C(CO)O[C@H]2O)C(O)C(O)[C@@H]1O (stereo partly drawn) [galactosylkojibiose, α-D-glucopyranosyl-(1→2)-[β-D-galactopyranosyl-(1→4)-]D-glucopyranoside]	not observed	no significant change	decay of the chromatographic peak	promote the growth	promote the growth
OCC1O[C@H](OC2[C@H](O)OC(CO)[C@@H](O)[C@@H]2O)C(O)[C@@H](O)[C@@H]1O (stereo partly shown) [kojibiose]				promote the growth	promote the growth
